Measurements as given in publication PMC12377105, “Development of eugenol derivatives with 5-LOX inhibitory activity” (Journal of Enzyme Inhibition and Medicinal Chemistry, 2025).
Values joined by “and” are separate entries in the source; they are usually repeats but may differ in a detail not shown here. Equal values may be shown once.

Target: T1, soybean lipoxygenase (model enzyme for 5-LOX) (Glycine max, UniProt P08170)
T1 sequence (P08170 1-839): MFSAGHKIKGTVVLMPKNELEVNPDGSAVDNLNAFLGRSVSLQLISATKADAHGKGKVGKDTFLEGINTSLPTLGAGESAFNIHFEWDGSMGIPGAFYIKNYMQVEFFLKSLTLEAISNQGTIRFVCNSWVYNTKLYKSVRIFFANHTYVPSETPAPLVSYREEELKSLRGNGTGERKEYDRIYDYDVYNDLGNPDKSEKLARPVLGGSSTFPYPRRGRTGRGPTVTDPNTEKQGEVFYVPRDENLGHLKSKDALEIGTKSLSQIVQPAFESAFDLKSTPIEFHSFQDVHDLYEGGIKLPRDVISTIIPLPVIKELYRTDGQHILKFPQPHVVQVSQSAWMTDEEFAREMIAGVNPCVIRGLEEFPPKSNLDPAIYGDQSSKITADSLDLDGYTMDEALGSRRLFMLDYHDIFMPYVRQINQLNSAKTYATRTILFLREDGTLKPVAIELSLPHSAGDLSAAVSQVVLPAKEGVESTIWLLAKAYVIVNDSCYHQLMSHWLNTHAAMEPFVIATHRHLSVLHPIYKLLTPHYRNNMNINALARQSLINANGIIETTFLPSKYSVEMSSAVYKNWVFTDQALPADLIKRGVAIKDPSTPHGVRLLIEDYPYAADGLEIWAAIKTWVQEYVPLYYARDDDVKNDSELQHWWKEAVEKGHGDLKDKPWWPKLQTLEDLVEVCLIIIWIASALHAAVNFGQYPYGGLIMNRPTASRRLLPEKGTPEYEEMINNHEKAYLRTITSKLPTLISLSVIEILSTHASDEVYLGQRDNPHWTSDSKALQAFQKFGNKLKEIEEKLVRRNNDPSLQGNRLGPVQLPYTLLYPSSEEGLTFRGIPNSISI
Test: In vitro 5-LOX inhibition assay (soybean lipoxygenase, oxidation of linoleic acid at 234 nm)
Type: biochemical
Conditions: for IC50: dose-response, concentration range 6.25-100 µM
Experimental: Soybean lipoxygenase (linoleate 13S-lipoxygenase) is widely accepted as a model enzyme to screen compounds for LOX inhibition due to the high degree of binding site similarity between plant LOXs and animal 5-LOX[20]. LOX inhibition was assessed at room temperature, following the oxidation of linoleic acid to 13-hydroperoxylinoleic acid at 234 nm, according to a described procedure. The assay was performed by adding 20 μL of each eugenol derivative (1.3 mM) dissolved in phosphate buffer, 200 μL of phosphate buffer (pH 9.0) and 20 μL of soybean lipoxygenase solution (100 U). After 5 min of incubation at room temperature, the reaction was initiated by the addition of 20 μL of linoleic acid (4.18 mM in ethanol), absorbance being monitored during 3 min, using a Multiskan GO plate reader (Thermo Fisher Scientific; Waltham, MA, USA). The inhibition of enzyme activity was then calculated by comparing the reaction rate with the control (no compound). Quercetin (50 μM, final concentration) was used as a positive control.

[1] = 100 µM, cell-free preliminary screening

SMILES | IC50 | inhibition at 100 µM [1] | 5-LOX inhibitory activity (in words) [1]
COCC(O)Cc1ccc(O)c(OC)c1 (stereo not drawn) [7a] |  |  | inactive
COc1cc(CC(O)COC(C)(C)C)ccc1O (stereo not drawn) [7c, 4-(3-(tert-butoxy)-2-hydroxypropyl)-2-methoxyphenol] | < 100 µM and 33.8 µM |  | almost full inhibition
COc1cc(CC(O)COc2ccccc2)ccc1O (stereo not drawn) [7f] |  |  | inactive
CCCCCCC(C)NCC(O)Cc1ccc(OC)c(O)c1 (stereo not drawn) [8b] |  |  | did not show statistically significant inhibition
COc1cc(CC(O)CN2CCCCC2)ccc1O (stereo not drawn) [8c] |  |  | did not show statistically significant inhibition
COc1cc(CC(O)CN(C)c2ccccc2)ccc1O (stereo not drawn) [8d] |  |  | statistically significant activity
COc1cc(CC(O)CNc2ccccc2)ccc1O (stereo not drawn) [8e] |  |  | did not show statistically significant inhibition
COc1cc(CC(O)CNc2ccc(C#N)cc2)ccc1O (stereo not drawn) [8f] |  |  | did not show statistically significant inhibition
COc1ccc(NCC(O)Cc2ccc(O)c(OC)c2)cc1 (stereo not drawn) [8g] |  |  | statistically significant activity
COc1cccc(NCC(O)Cc2ccc(O)c(OC)c2)c1 (stereo not drawn) [8h] |  |  | statistically significant activity
COc1cc(CC(O)CNc2cccc(Br)c2)ccc1O (stereo not drawn) [8i] |  |  | did not show statistically significant inhibition
COc1cc(CC(O)C[N+](=O)[O-])ccc1O (stereo not drawn) [9a] |  |  | did not show statistically significant inhibition
COc1cc(CC2CO2)ccc1O (stereo not drawn) [compound 6, 2-methoxy-4-(oxiran-2-ylmethyl)phenol] |  |  | did not show inhibitory activity

Further lines, with some results ahead:

IC50 | inhibition at 100 µM [1] | SMILES | 5-LOX inhibitory activity (in words) [1]
< 100 µM and 76.2 µM |  | C=CCc1ccc(OCCCC(=O)OCC)c(OC)c1 [4e, ethyl-4-(4-allyl-2-methoxyphenoxy)butanoate] | statistically significant reduction in 5-LOX activity
< 100 µM and 36.9 µM |  | COc1cc(CC2CO2)ccc1OCCCOC(C)=O (stereo not drawn) [5d, 3-(2-methoxy-4-(oxiran-2-ylmethyl)phenoxy)propyl acetate] | highly active
 | ~30% | CCOCC(O)Cc1ccc(O)c(OC)c1 (stereo not drawn) [7b] | 
< 100 µM and 34 µM |  | C=CCc1ccc(O)c(O)c1 [compound 2, 4-allylbenzene-1,2-diol] | promising activity
